The results in this text go back to patent US20230405001A1, “TREATMENT OR PREVENTION OF HIV INFECTION” (Janssen Sciences Ireland Unlimited Company, priority 2020, published 2023).

Data set [1] is described as follows: Plasma kinetics in minipigs after single subcutaneous dosing, rilpivirine suspension with or without rHuPH20 (Example 1). To be noted: minipig. The class given is in vivo. How it is done:
Six minipigs with body weights ranging from 20 to 25 kg at the start of the study were used. The minipigs were fasted overnight before dosing. Three minipigs were dosed subcutaneously in the loin with 0.19 mL of the hyaluronidase solution (10,000 U/mL) followed by 900 mg/3 mL of the rilpivirine nanosuspension at the same injection site (treatment group A). Three minipigs were dosed subcutaneously in the loin with the 900 mg/3 mL of the control rilpivirine suspension (treatment group B—control). The injection volume was 3 mL rilpivirine suspension in both treatment groups. Method—Sequential Administration • 1. Flip-off rHuPH20 solution vial flip cap and wipe with isopropyl alcohol wipe. Allow to dry. Attach an 18 G transfer needle to a 1 mL syringe. • 2. Draw 0.35 mL into the syringe. • 3. Prime the syringe and set liquid level to 0.25 mL in the syringe. • 4. Remove transfer needle and attach syringe cap to 1 mL syringe. • 5. Mix rilpivirine by horizontally shaking the container 30 times over […] approximately 10 s (a back and forth arm movement=2 times). Ensure well mixed/fully re-suspended. • 6. Flip-off rilpivirine vial flip cap and wipe with isopropyl alcohol wipe. Allow to dry. • 7. Attach 18 G transfer needle to 5 mL syringe. • 8. Invert vial and draw>3.2 mL into 5 mL syringe mL (or as much as can be removed from vial). Injecting 1-2 mL of air will facilitate draw. • 9. Detach needle and attach a syringe cap to 5 mL syringe • 10. Invert syringe. Wait 5 minutes for bubbles to settle. • 11. Attach a winged infusion set to the rHuPH20 1 mL syringe. Invert syringe and prime off air so that liquid forms at the tip of the needle. (0.19 mL of rHuPH20 should be in the line) • 12. Insert the winged infusion set into the subcutaneous tissue of the target injection site by pinching the skin and inserting the needle at a 30-45 degree angle. • 13. Release the pinch. • 14. UNSCREW rHuPH20 syringe from infusion set maintaining the needle in the skin. […] It is advisable to have this syringe prepared while the technician is inserting the rHuPH20 infusion line. • 15. Remove the syringe cap from the 5 mL syringe with rilpivirine. Remove air and set the dose at 3.2 mL. • 16. Attach rilpivirine filled syringe to the open end of the infusion set. • 17. […] Plasma samples were analysed individually by means of a validated LC-MS/MS method. Pharmacokinetic Data Analysis • The pharmacokinetic profile of the blood plasma samples was evaluated using non-compartmental pharmacokinetic analysis (using individual Cp vs time profiles). Mean plasma concentrations and PK parameters (Cmax, Tmax, t1/2 and AUC values) were measured and the results are provided in Table 1.

A short description of data set [2]: Plasma kinetics in minipigs over 6 months after single subcutaneous dosing, sequential, admixed or control (Example 2). The class given is in vivo. As to conditions: minipig, sc, 1830 mg; for AUC(0-t): single s.c. about 1800 mg/6 mL. How it is done: Nine minipigs with body weights ranging from 17 to 21 kg at the start of the study were used. The minipigs were fasted overnight before dosing. The minipigs were anaesthetized with propofol before dosing. Three minipigs were dosed subcutaneously in the loin with 0.44 mL of the hyaluronidase solution (10,000 U/mL) followed by 1818 mg/6.06 mL of the rilpivirine nanosuspension at the same injection site (treatment group A—sequential).
Three minipigs were dosed subcutaneously in the loin with the 1816 mg/6.5 mL admixed hyaluronidase solution (10,000 U/mL)+rilpivirine suspension (treatment group B— admixed). Three minipigs were dosed subcutaneously in the loin with the 1830 mg/6.1 mL of the control rilpivirine suspension (treatment group C—control). Vetbond 3M surgical sealant was used to seal the injection site to limit any leakage if necessary.
The control rilpivirine suspension was prepared and administered by the following method. • 1. Mix rilpivirine by horizontally shaking the container 30 times over approximately 25 cm within approximately 10 s (a back and forth arm movement=2 times). Ensure well mixed/fully re-suspended. • 2. Flip-off rilpivirine vial flip cap and wipe with isopropyl alcohol wipe. Allow to dry. • 3. Repeat steps 1-2 with a 2nd vial of rilpivirine. If there is a low draw, or unexpected amount of air/settling after draw, a 3rd vial may need to be prepared to ensure the proper dose level can be filled into the syringe. • 4. Attach 18 G transfer needle to 10 mL syringe. • 5. Invert vial and draw>3.2 mL into 10 mL syringe (or as much as can be removed from vial). Injecting 1-2 mL of air will facilitate draw. • Repeat step 5 with the 2nd vial so that at approximately 6.5 mL of drug product is in the 10 mL syringe. Important: see note in (step 3) about preparing a 3rd vial in case of low volume draw. • 6. Detach needle and attach a syringe cap to 10 mL syringe • 7. Wait 5 minutes for bubbles to settle with syringe inverted. • 8. Remove syringe cap, invert syringe prime off air. • 9. Attach a winged infusion set. • 10. Set dose at 6.1 mL after filling infusion set line until liquid forms at tip of needle (0.44 mL undeliverable/dead volume will be in infusion set). • 11. Insert the winged infusion set into the subcutaneous tissue of the target injection site by pinching the skin and inserting the needle at a 30-45 degree angle. • 12. Release the pinch. • 13. Inject over 2 minutes at a constant rate until the syringe plunger bottoms out • 14. Remove the winged infusion set and dispose. • 15. Record any site leakage.
The sequential administration of hyaluronidase solution and then rilpivirine suspension was performed according to the following method. • 1. Flip-off rHuPH20 solution vial flip cap and wipe with isopropyl alcohol wipe. Swirl vial. Allow vial stopper to dry. […]

On to `Cc1cc(/C=C/C#N)cc(C)c1Nc1ccnc(Nc2ccc(C#N)cc2)n1` [Rilpivirine, 4-[[4-[[4-[(1E)-2-cyanoethenyl]-2,6-dimethylphenyl]amino]-2-pyrimidinyl]amino]benzonitrile], for which the λz in data set [1] (single s.c. 900 mg/3 mL, N=3) was 0.0009 ± 0.00009 h⁻¹. The same molecule displayed a Tlast in data set [1] (single s.c. 900 mg/3 mL, median, N=3) of 2160 h. For the same molecule, the AUC(0-t) in data set [1] (plasma, sc, single s.c. 900 mg/3 mL, N=3) stood at 22300 ± 2930 ng·h/mL; in data set [2] (N=3, read-out: Mean AUC0-1 months), 22000 ng·h/mL; in data set [2] (N=3, read-out: Mean AUC0-6 months), 78300 ng·h/mL. Besides, the Cmax (usually the highest concentration seen after dosing) stood at 28.5 ± 9.56 ng/mL in data set [1] (plasma, sc, single s.c. dose in the loin, 900 mg/3 mL rilpivirine suspension, N=3, mean ± SD); 563 ng/mL in data set [2] (control group C, single animal, at 7 hours post-administration, read-out: Cmax of the excluded outlier minipig); 49 ng/mL in data set [2] (single s.c. about 1800 mg/6 mL rilpivirine nanosuspension, N=3, control value excludes an outlier minipig, read-out: Mean Cmax).
